Patent US20250376481A1, “POLYCYCLIC CARBAMOYL PYRIDONE DERIVATIVE, PREPARATION METHOD THEREFOR AND PHARMACEUTICAL COMPOSITION THEREOF” (NANJING AIDEA PHARMACEUTICAL TECHNOLOGY CO., LTD., priority 2021, published 2025)
Like-named read-outs stand apart in the source and are kept apart here.

Assays:
[1] = Cytotoxicity test (cell viability, CellTier Glo); assay type: cell-based; conditions: human
Protocol: (§1) • Virus: The HIV-1 pseudovirus used in this experiment was a replication deficient virus, which is constructed by WuXi AppTec. • HEK 293T cell line was purchased from ATCC, and Item No. is CRL-11268. Cells were cultured in DMEM medium with 10% fetal bovine serum and 1% double antibody. • Reagents
(§2) On the first day, HEK 293T cells were inoculated into a 96 well test plate at the density of 55000 cells per well and […] per well, and incubated overnight in a 5% CO2 and 37° C. incubator.
(§3) On the second day, the tested compounds (compounds provided in the example of the present invention) and the control compounds were diluted 4-fold with cell culture medium for a total of 8 concentration points, and 50 μL diluted compounds were added to each well, and each well was performed duplicate.
(§4) Cell Control (cells, no compound treatment or virus infection) and virus control (cells infected with virus, no compound treatment) were set up. The final initial test concentration of the tested compounds and control compounds was 1000 nM (Table 1), and the amount of virus infection was 100 TCID50 per well. The total volume of cell culture medium was 200 μL per well, and the final concentration of DMSO in the culture medium was 0.5%.
(§5) The cells were cultured in a 5% CO2 and 37° C. incubator for additional 3 days.
(§6) On the fifth day, in the cytotoxicity test plates, 100 μL cell supernatant were sucked from each well, 100 μL cell viability assay reagent CellTier Gloin was added in dark. Cell viability in each well was detected by BioTek enzyme-linked immunosorbent assay reader, and the data was used for sample cytotoxicity analysis.
(§7) Dose-response curve was drawn through GraphPad Prism software. The calculation equations for antiviral activity (% Inhibition) and cell viability (% cell viability) were as follow:
(§8) The values of EC50 and CC50 were analyzed by GraphPad Prism (version 5) software, and nonlinear fitting analysis was used for inhibitory activity and cell viability of the compounds, and the fitting method was “log (inhibitor) vs. response—Variable slope”.
(§9) 3. The HIV-1 pseudovirus experiment was applied to determinate the in vitro antiviral activity and cytotoxicity of the tested compound on HEK 293T cells, and the experimental results were shown in the table below.

HIV-1 pseudovirus = HIV-1 pseudovirus infection test (antiviral activity, luciferase); assay type: cell-based
Protocol: as §1, §2, §3
Subsequently, the HIV-1 pseudovirus was diluted to 100 TCID50/50 μL with cell culture medium, and 50 μL diluted virus was added to each well.
as §4, §5
On the fifth day, in the antiviral activity test plates, 100 μL cell supernatant was sucked away from each well, 100 μL 2X luciferase reporter gene assay reagent Britellite plus was added in dark. The luciferase activity in each well of the test plates was detected by Envision. The data was used for sample antiviral activity analysis.
as §7, §8, §9

[2] = Oil-water partition coefficient (n-octanol / pH 7.4 phosphate buffer); assay type: physicochemical
Protocol: • a) To a 5 mL glass bottle was added 1 mL n-octanol and 1 mL pH 7.4 phosphate buffer, respectively. • b) The compound was added to a DMSO solution to prepare a compound stock solution with a concentration of 10 mM, and then 20 μL compound stock solution was added to the mixture solution of n-octanol and phosphate buffer. • c) Shaken at room temperature for 1 hour at a rate of 300/minute. • d) Kept for 30 minutes, and after the solution was completely layered, the upper and lower layers of the solution were taken separately to a 96 well deep well plate, and LC-MS/MS was used for detection via injection. • e) The aliquots of 1-octanol and aqueous solution were diluted consecutively with DMSO to obtain the final sample for LC-MS/MS analysis. Three consecutive dilutions were carried on every 1-octanol phase with covering a concentration range of 2500 fold. Every final aqueous phase was diluted consecutively twice with covering a concentration range of 100 fold. The MS peak areas of these solutions were used to generate log (peak area) based on the log (relative concentration) calibration line.
[formula] • Coct=sample concentration in n-octanol • Caq=sample concentration in pH 7.4 phosphate buffer

[3] = PK test of compounds (mouse); assay type: in vivo, ICR mice; conditions: for bioavailability (in words): PK test in mice; for half-life / bioavailability: male, mouse, plasma, ICR mice; for half-life: PO 10 mg/kg; for bioavailability: PO 10 mg/kg (IV 2 mg/kg)
Protocol: The mice were not fed until 5 pm on the day before administration, and fasted overnight with water. The mice in Group IV were administered with 2 mg/kg, while those in Group PO were administered with 10 mg/kg. Feeding was resumed 2 hours after administration. For mice administered by gavage, 20 μL blood was collected from the saphenous vein in calf before administration and 0.25, 0.5, 1, 2, 4, 8, and 24 hours after administration, respectively, and placed in EDTA-K2 anticoagulant blood collection tubes, and then the blood would be placed on ice until centrifuged to obtain plasma samples. The plasma samples were centrifuged at 4° C. (3500 rpm, 10 min), and after separation, the samples were transferred to EP tubes and stored at −80° C. for detection. For mice admistrated by intravenous injection, 20 μL blood was collected from the saphenous vein in calf before administration and 0.0833, 0.25, 0.5, 1, 2, 4, 8 and 24 hours after administration, respectively, and placed in EDTA-K2 anticoagulant blood collection tubes, and then the blood would be placed on ice until centrifuged to obtain a plasma sample. The plasma samples were centrifuged at 4° C. (3500 rpm, 10 min), and after separation, the samples were transferred to EP tubes and stored at −80° C. for detection. The level of tested compounds in blood plasma of mice, who had orally administrated with different concentrations of drugs were determinated: 10 μL mouse blood at each time point after administration was taken, 100 μL methanol containing an internal standard (100 ng/mL) was added, vortex mixed for 1 minute, centrifuged at 4° C. (12000 rmp, 5 minutes), and 1 μL supernatant was taken from the plasma samples for LC-MS/MS analysis.

HEK 293T cells = assay: Cytotoxicity test (cell viability, CellTier Glo); assay type: cell-based; conditions: HEK 293T cells, highest test concentration 1000 nM
Protocol: as §1, §2, §3, §4, §5, §6, §7, §8, §9

HIV-1 integrase = HIV-1 integrase (Human immunodeficiency virus type 1 group M subtype B, UniProt P04585); assay: Integrase activity test (HIV-1 Integrase Assay Kit EZ-1700)
Protocol: A non-radioactive assay method, an integrase assay kit, was used to measure integrase activity quantitatively.
Each component was prepared according to the instructions of the kit; preparation of test sample, 5 mM DMSO solution was prepared for backup, working solution was prepared according to the initial final concentration determined at the time of method establishment, with a 4-fold gradient dilution and 10 concentrations.
• (1) The working solution of sample was prepared according to the initial concentration determinated during the methodology establishment process; • (2) Reagents were prepared according to the methods provided in the kit; • (3) DS DNA coating—blocking—addition of integrase solution—addition of sample—addition of TS DNA—addition of HRP antibody-addition of TMB peroxidase substrate—TMB termination reaction-detection of light absorption value at 450 nm.
The software Graphpad Prism 8.0 was applied and the calculation equation of Log (inhibitor) vs. response variable slope was used to fit the IC50 curve.

[4] = Human immunodeficiency virus 1, HEK-293T, 72 h
[5] = n-octanol / pH 7.4 phosphate buffer, pH 7.4, read-out: Log D (pH 7.4)
[6] = HIV-1 pseudovirus, HEK 293T cells, 3 days, luciferase, read-out: EC50

C[C@H]1N2C(=O)c3c(O)c(=O)c(C(=O)NCc4ccc(F)cc4F)cn3C[C@@H]2OC12CC2 [Compound 10]
CC50 at 3 days [1]: > 1000 nM
EC50 (HIV-1 pseudovirus; [4]): 2.7 nM
logD [2, 5]: 1.9
bioavailability (in words) [3]: good bioavailability
half-life [3]: 1.53 ± 1.06 h
bioavailability [3]: 32.9%

C[C@@H]1CC2(CCCCC2)O[C@H]2Cn3cc(C(=O)NCc4ccc(F)cc4F)c(=O)c(O)c3C(=O)N12 [Compound 8]
CC50 at 3 days [1]: > 1000 nM
EC50 (HIV-1 pseudovirus; [4]): 13.7 nM

C[C@]12CC[C@H]3[C@@H](CCC4=CC(=O)CC[C@@]43C)[C@@H]1CC[C@@H]2O [Testosterone, reference compound]
logD ([2]; n-octanol / pH 7.4 phosphate buffer, read-out: Log D (pH 7.4)): 2.85

C[C@@H]1CCO[C@H]2Cn3cc(C(=O)NCc4ccc(F)cc4F)c(=O)c(O)c3C(=O)N12 [DTG, Dolutegravir, reference compound]
CC50 at 3 days [1]: > 1000 nM
antiviral activity against HIV-1 pseudovirus (in words) (HIV-1 pseudovirus; HEK 293T cells): have antiviral activity
EC50 (HIV-1 pseudovirus; [4]): 1.49 nM
logD [2, 5]: 1.6
half-life [3]: 3.7 ± 0.09 h
bioavailability [3]: 46%

Cc1nnc(C(=O)NC(C)(C)c2nc(C(=O)NCc3ccc(F)cc3)c(O)c(=O)n2C)o1 [RAL, Raltegravir, reference compound]
CC50 at 3 days ([1]; HEK 293T cells, highest test concentration 1000 nM, read-out: CC50): > 1000 nM
antiviral activity against HIV-1 pseudovirus (in words) (HIV-1 pseudovirus; HEK 293T cells): have antiviral activity
EC50 (HIV-1 pseudovirus; [4]): 3.42 nM

C[C@H]1N2C(=O)c3c(O)c(=O)c(C(=O)NCc4ccc(F)cc4F)cn3C[C@@H]2OC12CCCCC2 [Compound 12]
CC50 at 3 days [1]: > 1000 nM
EC50 (HIV-1 pseudovirus; [4]): 4.93 nM

C[C@H]1N2C(=O)c3c(O)c(=O)c(C(=O)NCc4ccc(F)cc4F)cn3C[C@@H]2OCC12CCCCC2 [Compound 4]
CC50 at 3 days [1]: > 1000 nM
EC50 (HIV-1 pseudovirus; [4]): 5.83 nM

(S)—N-(2,4-difluorophenyl)-6′-hydroxy-5′,7′-dioxo-5′,7′,11′,11a′-tetrahydro-2′H-spiro[cyclopropane-1,3′-oxazole[3,2-a]pyridino[1,2-d]pyrazine]-8′-formamide [Compound 17]
CC50 (HEK 293T cells): > 1000 nM
EC50 (HIV-1 pseudovirus; [6]): 3.73 nM

C[C@H]1N2C(=O)c3c(O)c(=O)c(C(=O)NCc4ccc(F)cc4F)cn3C[C@@H]2OCC12CCCC2 [Compound 3]
CC50 at 3 days [1]: > 1000 nM
EC50 (HIV-1 pseudovirus; [4]): 5.63 nM

O=C(NCc1c(F)cc(F)cc1F)c1cn2c(c(O)c1=O)C(=O)N1[C@H]3CC[C@H](C3)O[C@@H]1C2 [BIC, Bictegravir, reference compound]
IC50 (HIV-1 integrase): 21.2 nM

(S)—N-(2,4-difluorophenyl)-7′-hydroxy-6′,8′-dioxo-2′,3′,6′,8′,12′,12a′-hexahydrospiro[cyclopropane-1,4′-pyridino[1′,2′:4,5]pyrazine[2,1-b][1,3]oxazine]-9′-formamide [Compound 14]
CC50 (HEK 293T cells): > 1000 nM
EC50 (HIV-1 pseudovirus; [6]): 8.72 nM

(R)—N-(2,4-difluorophenyl)-6′-hydroxy-5′,7′-dioxo-5′,7′,11′,11a′-tetrahydro-2′H-spiro[cyclopropane-1,3′-oxazole[3,2-a]pyridino[1,2-d]pyrazine]-8′-formamide [Compound 18]
CC50 (HEK 293T cells): > 1000 nM
EC50 (HIV-1 pseudovirus; [6]): 3.34 nM

O=C(NCc1ccc(F)cc1F)c1cn2c(c(O)c1=O)C(=O)N1C(C2)OCC12CC2 (racemic) [Compound 16]
CC50 at 3 days [1]: > 1000 nM
EC50 (HIV-1 pseudovirus; [4]): 1.11 nM
logD ([2]; pH 7.4): 1.8

C[C@@H]1CC2(CC2)O[C@H]2Cn3cc(C(=O)NCc4ccc(F)cc4F)c(=O)c(O)c3C(=O)N12 [Compound 6]
CC50 at 3 days [1]: > 1000 nM
EC50 (HIV-1 pseudovirus; [4]): 3.03 nM
logD [2, 5]: 2
bioavailability (in words) [3]: good bioavailability
half-life [3]: 2.68 ± 0.66 h
bioavailability [3]: 42.5%

C[C@@H]1CC2(CCOCC2)O[C@H]2Cn3cc(C(=O)NCc4ccc(F)cc4F)c(=O)c(O)c3C(=O)N12 [Compound 9]
CC50 at 3 days [1]: > 1000 nM
EC50 (HIV-1 pseudovirus; [4]): 5.09 nM

C[C@H]1N2C(=O)c3c(O)c(=O)c(C(=O)NCc4ccc(F)cc4F)cn3C[C@@H]2OCC12CCOCC2 [Compound 5]
CC50 at 3 days [1]: > 1000 nM
EC50 (HIV-1 pseudovirus; [4]): 4.45 nM

C[C@H]1N2C(=O)c3c(O)c(=O)c(C(=O)NCc4ccc(F)cc4F)cn3C[C@@H]2OCC12CCC2 [Compound 2]
CC50 at 3 days [1]: > 1000 nM
EC50 (HIV-1 pseudovirus; [4]): 1.19 nM
logD [2, 5]: 2.5
bioavailability (in words) [3]: good bioavailability
half-life [3]: 1.94 ± 0.04 h
bioavailability [3]: 50.8%

(R)—N-(2,4-difluorophenyl)-7′-hydroxy-6′,8′-dioxo-2′,3′,6′,8′,12′,12a′-hexahydrospiro[cyclopropane-1,4′-pyridino[1′,2′:4,5]pyrazine[2,1-b][1,3]oxazine]-9′-formamide [Compound 15]
CC50 (HEK 293T cells): > 1000 nM
EC50 (HIV-1 pseudovirus; [6]): 14 nM

C[C@@H]1CC2(CCCC2)O[C@H]2Cn3cc(C(=O)NCc4ccc(F)cc4F)c(=O)c(O)c3C(=O)N12 [Compound 7]
CC50 at 3 days [1]: > 1000 nM
EC50 (HIV-1 pseudovirus; [4]): 11.6 nM

O=C(NCc1ccc(F)cc1F)c1cn2c(c(O)c1=O)C(=O)N1C(C2)OCCC12CC2 (racemic) [Compound 13, (2,4-difluorophenyl)-7′-hydroxy-6′,8′-dioxo-2′,3′,6′,8′,12′,12a′-hexahydrospiro[cyclopropane-1,4′-pyridino[1′,2′:4,5]pyrazine[2,1-b][1,3]oxazine]-9′-formamide]
CC50 at 3 days [1]: > 1000 nM
EC50 (HIV-1 pseudovirus; [4]): 1.05 nM
logD ([2]; pH 7.4): 1.5
